A value given as a limit tells only on which side of the number the result lay.

For test [1], the system named is MDA-MB-231 human breast cancer cells. The test is described as follows: Proliferation assay MDA-MB-231 (crystal violet). It is filed as cell-based. Particulars: Homo sapiens, MDA-MB-231, 96 h, MDA-MB-231 cells, 4 days, median, read-out: Prolif-MDA MB231 IC50 - [mol/l] (median). How it is done:
4. Proliferation assay: MDA-MB-231, CAL-120
Human tumour cells were originally obtained from the American Type Culture Collection (ATCC), or from the Deutsche Sammlung von Mikroorganismen and Zellkulturen (DSMZ, German Collection of Microorganisms and Cell Cultures). Cultivated tumour cells (CAL-120, human breast adenocarcinoma cells, DSMZ ACC-459; MDA-M B-231, human breast cancer cells, ATCC HTB-26) were plated at a density of 4,000 cells/well in a 96-well multititer plate in 200 microL of their respective growth medium supplemented 10% fetal calf serum. After 24 hours, the cells of one plate (zero-point plate) were stained with crystal violet (see below), while the medium of the other plates was supplemented with the test substances in various concentrations (0 micromol/L, as well as in the range of 0.01-10 micromol/L; the final concentration of the solvent dimethyl sulfoxide was adjusted to 0.1%) using a Tecan HP D300 Digital Dispenser. The cells were incubated for 4 days in the presence of test substances. Cell proliferation was determined by staining the cells with crystal violet: the cells were fixed by adding 20 microL/measuring point of an 11% glutaric aldehyde solution for 15 minutes at room temperature. After three washing cycles of the fixed cells with water, the plates were dried at room temperature. The cells were stained by adding 100 microL/measuring point of a 0.1% crystal violet solution (pH 3.0). After three washing cycles of the stained cells with water, the plates were dried at room temperature. The dye was dissolved by adding 100 microL/measuring point of a 10% acetic acid solution. The extinction was determined by photometry at a wavelength of 595 nm. The change of cell number, in percent, was calculated by normalization of the measured values to the extinction values of the zero-point plate(=0%) and the extinction of the untreated (0 μM) cells(=100%). The IC50 values (inhibitory concentration at 50% of maximal effect) were determined by means of a 4 parameter fit.

Another test deals with T1, CYCLIN K (Homo sapiens, UniProt O75909).
T1 construct: endogenous in cells; host or cells: CAL-120 human breast cancer cells (DSMZ ACC 459)
T1 sequence (O75909 whole entry): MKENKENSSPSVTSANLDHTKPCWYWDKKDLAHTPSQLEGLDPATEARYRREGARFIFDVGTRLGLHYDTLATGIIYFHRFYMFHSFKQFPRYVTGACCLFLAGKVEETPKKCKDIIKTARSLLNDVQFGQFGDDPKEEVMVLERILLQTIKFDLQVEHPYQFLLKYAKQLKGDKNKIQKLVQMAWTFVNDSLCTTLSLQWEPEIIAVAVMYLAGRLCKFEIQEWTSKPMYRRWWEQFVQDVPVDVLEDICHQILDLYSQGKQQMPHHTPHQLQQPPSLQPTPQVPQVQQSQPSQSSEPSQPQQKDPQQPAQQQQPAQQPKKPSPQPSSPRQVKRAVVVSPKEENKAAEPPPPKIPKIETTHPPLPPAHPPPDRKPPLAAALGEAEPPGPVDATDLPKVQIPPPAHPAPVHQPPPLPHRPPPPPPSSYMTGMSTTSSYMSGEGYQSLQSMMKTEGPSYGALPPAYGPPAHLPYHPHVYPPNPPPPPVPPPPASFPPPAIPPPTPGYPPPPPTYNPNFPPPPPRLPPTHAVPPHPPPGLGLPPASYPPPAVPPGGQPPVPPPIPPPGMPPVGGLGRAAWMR
T1 sequence (Q9NYV4 whole entry partner): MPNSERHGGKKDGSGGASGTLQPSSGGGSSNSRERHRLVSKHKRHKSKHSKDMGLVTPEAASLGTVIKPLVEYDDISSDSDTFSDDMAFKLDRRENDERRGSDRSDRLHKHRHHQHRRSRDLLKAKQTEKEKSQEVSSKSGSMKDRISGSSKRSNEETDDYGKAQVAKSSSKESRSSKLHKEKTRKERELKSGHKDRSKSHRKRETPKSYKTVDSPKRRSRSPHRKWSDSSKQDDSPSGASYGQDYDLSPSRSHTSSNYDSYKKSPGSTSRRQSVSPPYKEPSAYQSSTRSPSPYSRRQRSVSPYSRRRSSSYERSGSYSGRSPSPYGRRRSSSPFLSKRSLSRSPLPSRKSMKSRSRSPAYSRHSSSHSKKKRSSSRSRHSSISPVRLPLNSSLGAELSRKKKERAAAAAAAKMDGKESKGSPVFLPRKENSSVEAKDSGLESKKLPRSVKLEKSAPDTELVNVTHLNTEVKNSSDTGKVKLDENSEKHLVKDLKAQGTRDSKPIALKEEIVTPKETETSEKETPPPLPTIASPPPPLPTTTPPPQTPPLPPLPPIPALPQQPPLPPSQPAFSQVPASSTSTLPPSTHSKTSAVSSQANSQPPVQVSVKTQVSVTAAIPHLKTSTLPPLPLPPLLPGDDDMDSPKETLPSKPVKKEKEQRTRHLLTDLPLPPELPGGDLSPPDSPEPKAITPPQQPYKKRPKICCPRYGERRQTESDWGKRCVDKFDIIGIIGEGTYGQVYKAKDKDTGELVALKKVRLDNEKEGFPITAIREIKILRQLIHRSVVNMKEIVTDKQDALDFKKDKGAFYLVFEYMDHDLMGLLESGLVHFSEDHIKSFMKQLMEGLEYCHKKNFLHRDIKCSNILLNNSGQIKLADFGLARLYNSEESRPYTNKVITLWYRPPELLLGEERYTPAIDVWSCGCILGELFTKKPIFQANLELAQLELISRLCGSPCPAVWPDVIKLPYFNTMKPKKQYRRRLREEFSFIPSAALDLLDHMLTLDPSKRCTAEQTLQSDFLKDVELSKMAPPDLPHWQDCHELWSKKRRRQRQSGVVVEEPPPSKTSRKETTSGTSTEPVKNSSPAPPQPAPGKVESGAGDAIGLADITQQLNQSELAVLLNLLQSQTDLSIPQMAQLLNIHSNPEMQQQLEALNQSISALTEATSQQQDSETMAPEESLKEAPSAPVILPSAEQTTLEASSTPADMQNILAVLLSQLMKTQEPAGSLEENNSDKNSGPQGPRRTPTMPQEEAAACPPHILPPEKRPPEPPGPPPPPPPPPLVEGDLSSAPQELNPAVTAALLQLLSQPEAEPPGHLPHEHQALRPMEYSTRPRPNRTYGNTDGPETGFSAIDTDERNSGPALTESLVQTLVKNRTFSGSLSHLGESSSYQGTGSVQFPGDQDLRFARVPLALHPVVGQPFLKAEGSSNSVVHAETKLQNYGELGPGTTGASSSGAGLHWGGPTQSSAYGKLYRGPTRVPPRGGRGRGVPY
The test is described as follows: CYCLIN K nuclear protein level: immunofluorescence/high content analysis in CAL-120 cells. To be noted: 24 h, nuclear CCNK staining intensity, median, read-out: CYCLIN K degradation IF, DC50- [mol/l] (median). It is filed as cell-based. The procedure: 7. CYCLIN K Nuclear Protein Level: Immunofluorescence/High Content Analysis
In the context of the present invention, the term “DC50 Cyclin K” refers to the DC50 values obtained according to the assay described in this section (7) herein below, i.e. the DC50 values for the degradation of Cyclin K.
CAL-120 human breast cancer cells (DSMZ ACC 459) are seeded in 1536-well microtiter plates (800 cells per well) containing 50 nanoL of compounds in Dose-Response. Control wells received DMSO or Reference Example 1. Plates are then incubated for 24 h at 37° C. in an humidified incubator and fixed with 4% PFA for 10 min. Then immunofluorescence (IF) against CYCLIN K (ThermoFisher Scientific CCNK Antibody # PA5-85020, rabbit, 1:200 dilution) is performed using standard IF protocols. Cells are then stained with Hoechst 33342 (Life Technologies, H-1399, 0.1 microg/mL) and imaged on an automated confocal microscopy system (e.g. Perkin Elmer Opera Phenix). Nuclear and cytoplasmic intensity as well as the nuclear/cytoplasmic intensity ratio is determined by automated image analysis using custom generated scripts (MetaXpress). Data is then transferred to Genedata Screener software, normalized to DMSO and control and DC50 values (degrading concentration to achieve 50% reduction of nuclear CCNK staining intensity relative to controls) are reported.

On to `O=CO.c1ccc(-n2nc(NCc3nc4ccccc4[nH]3)c3ncc(C4CC4)nc32)cc1` [Example 13, formic acid—N-[(1H-benzimidazol-2-yl)methyl]-6-cyclopropyl-1-phenyl-1H-pyrazolo[3,4-b]pyrazin-3-amine (1/1)], for which, in test [1], the IC50 stood at 0.168 µM. Moreover, the DC50 on CYCLIN K came to 0.00311 µM.

As to `c1ccc2[nH]c(CNc3nn(C4CCOCC4)c4nc(C5CC5)cnc34)nc2c1` [Example 16, N-[(1H-benzimidazol-2-yl)methyl]-6-cyclopropyl-1-(oxan-4-yl)-1H-pyrazolo[3,4-b]pyrazin-3-amine], the IC50 in test [1] came out at 0.0702 µM. In addition, the DC50 on CYCLIN K is over 0.677 µM.

Turning to `CN1CCC(n2nc(NCc3nc4cc(Cl)c(Cl)cc4[nH]3)c3ncc(C4CC4)nc32)CC1` [Example 19, 6-cyclopropyl-N-[(5,6-dichloro-1H-benzimidazol-2-yl)methyl]-1-(1-methylpiperidin-4-yl)-1H-pyrazolo[3,4-b]pyrazin-3-amine], in test [1], the IC50 came out at 0.00483 µM. For the same compound, the DC50 on CYCLIN K came to 0.000339 µM.

Consider `COc1cccc2[nH]c(CNc3nn(C4CCOCC4)c4nc(C5CC5)cnc34)nc12` [Example 24, 6-cyclopropyl-N-[(4-methoxy-1H-benzimidazol-2-yl)methyl]-1-(oxan-4-yl)-1H-pyrazolo[3,4-b]pyrazin-3-amine], for which the IC50 in test [1] was determined as 0.0124 µM. Besides, the DC50 at CYCLIN K was 0.00122 µM.

For `CN1CCC(n2nc(NCc3nc4cc(C(F)(F)F)ccc4[nH]3)c3ncc(C4CC4)nc32)CC1` [Example 25, 6-cyclopropyl-1-(1-methylpiperidin-4-yl)-N-{[5-(trifluoromethyl)-1H-benzimidazol-2-yl]methyl}-1H-pyrazolo[3,4-b]pyrazin-3-amine], the IC50 in test [1] turned out to be 0.00507 µM. Besides, on CYCLIN K, the DC50 came to 0.000543 µM.

As to `Fc1ccc2[nH]c(CNc3nn(C4CCOCC4)c4nc(C5CC5)cnc34)nc2c1F` [Example 32, 6-cyclopropyl-N-[(4,5-difluoro-1H-benzimidazol-2-yl)methyl]-1-(oxan-4-yl)-1H-pyrazolo[3,4-b]pyrazin-3-amine], the IC50 in test [1] was 0.00552 µM. For the same compound, on CYCLIN K, the DC50 was 0.000877 µM.

As for `c1ccc2[nH]c(CNc3nn(C4CCCC4)c4nc(C5CC5)cnc34)nc2c1` [Example 39, N-[(1H-benzimidazol-2-yl)methyl]-1-cyclopentyl-6-cyclopropyl-1H-pyrazolo[3,4-b]pyrazin-3-amine], the IC50 in test [1] was determined as 0.315 µM. For the same compound, the DC50 at CYCLIN K was found to be 0.0387 µM.

For the compound `O[C@H]1C[C@@H](n2nc(NCc3nc4ccccc4[nH]3)c3ncc(C4CC4)nc32)C1` [Example 40, cis-3-(3-{[(1H-benzimidazol-2-yl)methyl]amino}-6-cyclopropyl-1H-pyrazolo[3,4-b]pyrazin-1-yl)cyclobutan-1-ol], the IC50 in test [1] was 0.0839 µM. In addition, the DC50 at CYCLIN K was 0.00535 µM.

With `O[C@H]1C[C@H](n2nc(NCc3nc4ccccc4[nH]3)c3ncc(C4CC4)nc32)C1` [Example 43, trans-3-(3-{[(1H-benzimidazol-2-yl)methyl]amino}-6-cyclopropyl-1H-pyrazolo[3,4-b]pyrazin-1-yl)cyclobutan-1-ol], in test [1], the IC50 turned out to be 0.0622 µM. Also, the DC50 at CYCLIN K worked out at 0.00479 µM.

On to `c1ccc2[nH]c(CNc3nn(C4C[C@H]5CC[C@@H](C4)O5)c4nc(C5CC5)cnc34)nc2c1` (stereo partly drawn) [Example 45, exo/endo-N-[(1H-benzimidazol-2-yl)methyl]-6-cyclopropyl-1-(8-oxabicyclo[3.2.1]octan-3-yl)-1H-pyrazolo[3,4-b]pyrazin-3-amine], for which the IC50 in test [1] turned out to be 0.0168 µM. The DC50 at CYCLIN K came out at 0.00229 µM.

Turning to `OC[C@H]1C[C@H](n2nc(NCc3nc4ccccc4[nH]3)c3ncc(C4CC4)nc32)C1` [Example 46, [trans-3-(3-{[(1H-benzimidazol-2-yl)methyl]amino}-6-cyclopropyl-1H-pyrazolo[3,4-b]pyrazin-1-yl)cyclobutyl]methanol], the IC50 in test [1] turned out to be 0.0472 µM. In addition, on CYCLIN K, the DC50 was 0.00487 µM.

On to `OC[C@H]1C[C@@H](n2nc(NCc3nc4ccccc4[nH]3)c3ncc(C4CC4)nc32)C1` [Example 47, [cis-3-(3-{[(1H-benzimidazol-2-yl)methyl]amino}-6-cyclopropyl-1H-pyrazolo[3,4-b]pyrazin-1-yl)cyclobutyl]methanol], for which the IC50 in test [1] is 0.0508 µM. The DC50 at CYCLIN K amounted to 0.00629 µM.

Consider `c1ccc2[nH]c(CNc3nn(C4CCC4)c4nc(C5CC5)cnc34)nc2c1` [Example 49, N-[(1H-benzimidazol-2-yl)methyl]-1-cyclobutyl-6-cyclopropyl-1H-pyrazolo[3,4-b]pyrazin-3-amine], for which the IC50 in test [1] was 0.2 µM. The DC50 at CYCLIN K amounted to 0.0257 µM.

Take `O[C@H]1CC[C@H](n2nc(NCc3nc4ccccc4[nH]3)c3ncc(C4CC4)nc32)CC1` [Example 50, trans-4-(3-{[(1H-benzimidazol-2-yl)methyl]amino}-6-cyclopropyl-1H-pyrazolo[3,4-b]pyrazin-1-yl)cyclohexan-1-ol]: in test [1], the IC50 is 0.015 µM. Moreover, the DC50 on CYCLIN K is 0.00327 µM.

Consider `Fc1ccc2[nH]c(CNc3nn(C4CCOCC4)c4nc(C5CC5)cnc34)nc2c1` [Example 53, 6-cyclopropyl-N-[(5-fluoro-1H-benzimidazol-2-yl)methyl]-1-(oxan-4-yl)-1H-pyrazolo[3,4-b]pyrazin-3-amine], for which, in test [1], the IC50 was 0.0233 µM. Besides, the DC50 at CYCLIN K was 0.00641 µM.

For the compound `COCCn1nc(NCc2nc3ccccc3[nH]2)c2ncc(C3CC3)nc21` [Example 65, N-[(1H-benzimidazol-2-yl)methyl]-6-cyclopropyl-1-(2-methoxyethyl)-1H-pyrazolo[3,4-b]pyrazin-3-amine], the IC50 in test [1] was 0.437 µM. Moreover, the DC50 at CYCLIN K came out at 0.0374 µM.

As to `OCCn1nc(NCc2nc3ccccc3[nH]2)c2ncc(C3CC3)nc21` [Example 66, 2-(3-{[(1H-benzimidazol-2-yl)methyl]amino}-6-cyclopropyl-1H-pyrazolo[3,4-b]pyrazin-1-yl)ethan-1-ol], the IC50 in test [1] was determined as 0.386 µM. At CYCLIN K, the DC50 was determined as 0.0203 µM.

As for `COC(C)(C)CCn1nc(NCc2nc3ccccc3[nH]2)c2ncc(C3CC3)nc21` [Example 67, N-[(1H-benzimidazol-2-yl)methyl]-6-cyclopropyl-1-(3-methoxy-3-methylbutyl)-1H-pyrazolo[3,4-b]pyrazin-3-amine], the IC50 in test [1] turned out to be 0.268 µM. In addition, the DC50 on CYCLIN K was found to be 0.0156 µM.

As for `CN(C)CCn1nc(NCc2nc3ccccc3[nH]2)c2ncc(C3CC3)nc21` [Example 68, N-[(1H-benzimidazol-2-yl)methyl]-6-cyclopropyl-1-[2-(dimethylamino)ethyl]-1H-pyrazolo[3,4-b]pyrazin-3-amine], the IC50 in test [1] was found to be 0.645 µM. In addition, the DC50 on CYCLIN K was found to be 0.0207 µM.

In the case of `CC(C)(O)Cn1nc(NCc2nc3ccccc3[nH]2)c2ncc(C3CC3)nc21` [Example 69, 1-(3-{[(1H-benzimidazol-2-yl)methyl]amino}-6-cyclopropyl-1H-pyrazolo[3,4-b]pyrazin-1-yl)-2-methylpropan-2-ol], the IC50 in test [1] is 0.311 µM. The DC50 at CYCLIN K amounted to 0.0341 µM.

`O[C@H]1C[C@H](Cn2nc(NCc3nc4ccccc4[nH]3)c3ncc(C4CC4)nc32)C1` [Example 70, trans-3-[(3-{[(1H-benzimidazol-2-yl)methyl]amino}-6-cyclopropyl-1H-pyrazolo[3,4-b]pyrazin-1-yl)methyl]cyclobutan-1-ol]: in test [1], the IC50 stood at 0.174 µM. In addition, the DC50 on CYCLIN K is 0.0116 µM.

As to `O[C@H]1C[C@@H](Cn2nc(NCc3nc4ccccc4[nH]3)c3ncc(C4CC4)nc32)C1` [Example 71, cis-3-[(3-{[(1H-benzimidazol-2-yl)methyl]amino}-6-cyclopropyl-1H-pyrazolo[3,4-b]pyrazin-1-yl)methyl]cyclobutan-1-ol], the IC50 in test [1] was 0.0708 µM. In addition, the DC50 on CYCLIN K was 0.00883 µM.

For the origin of these results see patent US20230192700A1, “PYRAZOLOPYRAZINES ACTING ON CANCERS VIA INHIBITION OF CDK12” (Bayer Aktiengesellschaft, priority 2020, published 2023).
